biological target: T1, HIV protease (Human immunodeficiency virus type 1 group M subtype B, UniProt P04585); test: HIV Protease Assay; assay type: biochemical; details: 10 μM inhibitor, 4% DMSO, 450 μM substrate, pH 5.5, 30 minutes at 37° C., RP-HPLC
T1 construct: and purified protease
Procedure: An HIV protease standard assay was performed in a 60 μl reaction medium containing 50 mM sodium acetate, pH 5.5, 100 μg/ml bovine serum albumen,450 μM substrate (H2 N-Val-Ser-Gln-Asn-(β-naphthyl-alanine)-Pro-Val-Ile-OH), and purified protease. The reaction medium was incubated for 30 minutes at 37° C., quenched by the addition of 140 μl 5% H3 PO4, then analyzed by reverse phase HPLC using UV220 detection. In a typical control assay, 7% of the substrate was hydrolyzed. Aminediol inhibitors of the present invention, listed in the following Table 1, were then employed in the assay, for which purpose they were prepared as a […] solution in DMSO, then diluted to 30 μM with 50 mM sodium acetate/bovine serum albumen. This working stock was then diluted three-fold into the protease reaction medium, for a final concentration of 10 μM inhibitor and 4% DMSO.

Structure (SMILES) | HIV Protease % Inhibition at 10 μM
CC(C)(C)OC(=O)N[C@@H](Cc1ccccc1)[C@H](O)CNC[C@@H](O)[C@H](Cc1ccccc1)NC(=O)C(C)(O)c1ccccn1 (single isomer, unassigned; isomer a) [Compound 381, [1S-[1R*,2S*(2S*, 3R*)]]-[2-Hydroxy-3-[[2-hydroxy-3-[[2-hydroxy-1-oxo-2-(2-pyridinyl)propyl]amino]-4-phenylbutyl]amino]-1-(phenylmethyl)propyl]carbamic acid, 1.1-dimethylethyl ester, isomer A] | 60%
CC(C)(C)OC(=O)N[C@@H](Cc1ccccc1)[C@H](O)CNC[C@@H](O)[C@H](Cc1ccccc1)NC(=O)C1(O)CCc2ccccc21 (single isomer, unassigned; isomer a) [Compound 375, [1S-[1R*,2S*(2S*, 3R*)]]-[3-[[3-]](2,3-Dihydro-1-hydroxy-1H-inden-1-yl)carbonyl]amino]-2-hydroxy-4-phenylbutyl]amino]-2-hydroxy-1-(phenylmethyl)-propyl]carbamic acid, 1,1-dimethylethyl ester, isomer A] | 98%
COC(=O)NC(C)(C(=O)N[C@@H](Cc1ccccc1)[C@H](O)CNC[C@@H](O)[C@H](Cc1ccccc1)NC(=O)OC(C)(C)C)C(C)(C)C (single isomer, unassigned; isomer a) [Compound 373] | 85%
CC(C)(C)OC(=O)N[C@@H](Cc1ccccc1)[C@H](O)CNC[C@@H](O)[C@H](Cc1ccccc1)NC(=O)C1(O)CCc2ccccc21 (single isomer, unassigned; isomer b) [Compound 376, [1S-[1R*,2S*(2S*, 3R*)]]-[3-[[3-[[(2,3-Dihydro-1-hydroxy-1H-inden-1-yl)carbonyl]amino]-2-hydroxy-4-phenylbutyl]amino]-2-hydroxy-1-(phenylmethyl)propyl]carbamic acid, 1.1-dimethylethyl ester, isomer B] | 63%

same assay, conditions: pH 5.5, 10 μM inhibitor, 4% DMSO, 450 μM substrate, pH 5.5, 30 minutes at 37° C., RP-HPLC; read-out: HIV Protease % Inhibition at 10 μM

inhibition at 10 µM | Structure (SMILES)
83% | CC(C)(C)OC(=O)N[C@@H](Cc1ccccc1)[C@H](O)CNC[C@@H](O)[C@H](Cc1ccccc1)NC(=O)OC[C@H](O)CO [Compound 231, [1S-(1R*,2S*),(S*)]-[Iminobis[2-hydroxy-1-(phenylmethyl)-3,1-propanediyl]]biscarbamic acid, 2,3-dihydroxypropyl 1,1-dimethylethyl ester]
21% | CC(C)(C)OC(=O)NCC(O)[C@H](Cc1ccccc1)NC[C@@H](O)[C@H](Cc1ccccc1)NC(=O)OC(C)(C)C (mixture of isomers) [Compound 188, [3S-[3R*(2S*,3R*)]]-[3-[[3-[[(1,1-Dimethylethoxy)carbonyl]amino]-2-hydroxy-4-phenyl-butyl]amino]-2-hydroxy-4-phenylbutyl]carbamic acid, 1,1-dimethylethyl ester, 2:1 diastereomer mixture]
99% | CC(C)[C@@H](NC(=O)NCc1nc2ccccc2[nH]1)C(=O)N[C@@H](Cc1ccccc1)[C@H](O)CNC[C@@H](O)[C@H](Cc1ccccc1)NC(=O)OC(C)(C)C (relative stereo) [Compound 274, [1S*,2R*(2R*,3S*)]-N^2-[[(1H-Benzimidazol-2-ylmethyl)amino]carbonyl]-N-[3-[[3-[[(1,1-dimethylethoxy)carbonyl]amino]-2-hydroxy-4-phenylbutyl]amino]-2-hydroxy-1-(phenylmethyl)propyl]-D-valinamide]
1% | CC(C)(C)OC(=O)N1Cc2ccccc2C[C@H]1[C@H](O)CNC[C@H](O)[C@@H]1Cc2ccccc2CN1C(=O)OC(C)(C)C [Compound 12, [S-(R*,R*)]-3-[2-[[[-(R*,S*)]-2-[2-[(1,1-Dimethylethoxy)carbonyl]-1,2,3,4-tetrahydro-3-isoquinolinyl]-2-hydroxyethyl]amino]-1-hydroxyethyl]-3,4-dihydro-2(1H)-isoquinolinecarboxylic acid, (1,1-dimethylethyl) ester]
1% | CC(C)(C)OC(=O)N1Cc2ccccc2C[C@H]1[C@@H](O)CNC[C@H](O)[C@@H]1Cc2ccccc2CN1C(=O)OC(C)(C)C [Compound 10, [S-(R*,R*)]-3,3'-[Iminobis(1-hydroxy-2,1-ethanediyl)]-bis[2(1H)-iso-quinolinecarboxylic acid], bis(1,1-dimethylethyl) ester]
61% | CC(C)(C)OC(=O)N[C@@H](Cc1ccccc1)[C@H](O)CNC[C@@H](O)[C@H](Cc1ccccc1)NC(=O)C(C)(C)C [Compound 269, [1S-[1R*,2S*(2S*,3R*)]]-[3-[[3-[(2,2-Dimethyl-1-oxo-propyl)amino]-2-hydroxy-4-phenylbutyl]amino]-2-hydroxy-1-(phenylmethyl)propyl]carbamic acid, 1,1-dimethylethyl ester]
98% | CC(C)(C)OC(=O)N[C@@H](Cc1ccccc1)[C@H](O)CNC[C@@H](O)[C@H](Cc1ccccc1)NC(=O)OC(C)(CO)CO [Compound 251, [R-(R*,S*)]-[Iminobis[2-hydroxy-1-(phenylmethyl)-3,1-propanediyl)]biscarbamic acid, 1,1-bis(hydroxymethyl)ethyl 1,1-dimethylethyl ester]
28% | CC(C)(C)OC(=O)NC[C@H](O)[C@@H](Cc1ccccc1)NC[C@@H](O)[C@H](Cc1ccccc1)NC(=O)OC(C)(C)C [Compound 187, [2S-[2R*,3S*(2S*,3R*)]]-[3-[[3-[[(1,1-Dimethylethoxy)carbonyl]amino]-2-hydroxy-4-phenylbutyl]amino]-2-hydroxy-4-phenylbutyl]carbamic acid, 1,1-dimethylethyl ester]
97% | CC(C)(C)OC(=O)N[C@@H](Cc1ccccc1)[C@H](O)CNC[C@@H](O)[C@H](Cc1ccccc1)NC(=O)C1(O)CCCCC1(C)C (single isomer, unassigned; isomer a) [Compound 361, [1S-[1R*,2S*(2S*,3R*)]]-[3-[[3-[[2 , 2-Dimethyl-1-hydroxycyclohexyl)carbonyl]amino]-2-hydroxy-4-phenylbutyl]amino]-2-hydroxy-1-(phenylmethyl) propyl]carbamic acid, 1,1-dimethylethyl ester, isomer A]
46% | CC(C)(C)OC(=O)N[C@@H](Cc1ccccc1)[C@H](O)CNC[C@@H](O)[C@H](Cc1ccccc1)NC(=O)NCc1ccccc1 (relative stereo) [Compound 57, [1R*,2S*(2S*,3R*)]-[2-Hydroxy-3[[2-hydroxy-4-phenyl-3-[[[(phenylmethyl)amino]-carbonyl]amino]butyl]amino]-1-(phenylmethyl)-propyl]carbamic acid, 1,1-dimethylethyl ester]
95% | CC(C)(C)OC(=O)N[C@@H](Cc1ccccc1)[C@H](O)CNC[C@@H](O)[C@H](Cc1ccccc1)NC(=O)[C@H](O)c1ccccc1 [Compound 377, [1S-[1R*,2S*[2S*, 3R*(S*)]]]-[3-[[3-[2-Hydroxy-1-oxo-2-phenylethyl)amino]-2-hydroxy-4-phenylbutyl]amino]-2-hydroxy-1-(phenylmethyl)propyl]carbamic acid, 1-dimethylethyl ester]
11% | CN(Cc1ccccc1)C(=O)N[C@@H](Cc1ccccc1)[C@H](O)CNC[C@@H](O)[C@H](Cc1ccccc1)NC(=O)OC(C)(C)C [Compound 69, [1S-[1R*,2S*(2S*,3R*)]]-2-Hydrox3-[[2-hydroxy-3-[[[methyl(phenylmethyl)-amino]carbonyl]amino]-4-phenylbutyl]amino]-1-(phenylmethyl)propyl]carbamic acid, 1,1-dimethylethyl ester]
47% | CC(C)(C)OC(=O)N[C@@H](Cc1ccccc1)[C@H](O)CNC[C@@H](O)[C@H](Cc1ccccc1)NC(=O)[C@@H]1CCCN1C(=O)OCc1ccccc1 [Compound 102, [S-[1R*,2S*(2S*,3R*)[]-N-[[[3-[[3-[[(1,1-Dimethylethoxy)carbonyl]amino]-2-hydroxy-4-phenylbutyl]amino]-2-hydroxy-1-(phenylmethyl)-propyl]-N^2-[phenylmethoxy)carbonyl]-L-prolinamide]
96% | C=Cc1ccccc1C[C@H](NC(=O)OC(C)(C)C)[C@H](O)CNC[C@@H](O)[C@H](Cc1ccccc1)NC(=O)OC(C)(C)C [Compound 370, [1S-[1R*,2S*(2S*, 3R*)]]-[3-[[3-[[(1,1-Dimethylethoxy)carbonyl]amino]-2-hydroxy-4-(2-ethenylphenyl)butyl]amino]-2-hydroxy-1-(phenylmethyl)propxyl]carbamic acid, 1.1-dimethylethyl ester]

same assay, conditions: pH 5.5, read-out: HIV Protease % Inhibition at 10 μM

inhibition at 10 µM | Structure (SMILES)
98% | CN(C)C(=O)OCCOc1ccc(C[C@H](NC(=O)OC(C)(C)C)[C@H](O)CNC[C@@H](O)[C@H](Cc2ccccc2)NC(=O)OC(C)(C)C)cc1 [Compound 372, [1S-[1R*,2S*(2S*, 3R*)[[-]3-]]4-]4-[2-[[(Dimethylamino)carbonyl]oxy]ethoxyl]phenyl]-3-[[(1,1-dimethylethoxy)carbonyl]amino]-2-hydroxybutyl]amino]-2-hydroxy-1-(phenylmethyl) propyl]carbamic acid]
73% | CC(C)(C)COC(=O)N[C@@H](Cc1ccccc1)[C@H](O)CNC[C@@H](O)[C@H](Cc1ccccc1)NC(=O)OCC(C)(C)C [Compound 139, [1S-(1R*,2S*)]-[Iminobis[2-hydroxy-1-(phenylmethyl)-3,1-propanediyl]]biscarbamic acid, bis(2,2-dimethylpropyl)ester]

From patent US5760036A, “Aminediol protease inhibitors” (E. R. Squibb & Sons, Inc., priority 1995, dated 1998)
